According to patent publication US10053477B2, “Spirocyclic aryl phosphorus oxide and aryl phosphorus sulfide” (QILU PHARMACEUTICAL CO., LTD., priority 2014, dated 2018):

What was measured:
[1] = target: T1, EGFR T790M/L858R (Homo sapiens, UniProt P00533, L858R/T790M); test: EGFR T790M/L858R enzymatic inhibition (HTRF); assay type: biochemical; conditions: 20 μM ATP
T1 construct: purchased Life technology (Madison, Wis.)
Procedure: Enzyme: ALK wild-type, ALK C1156Y and ALK L1196M supplied by Carna Biosciences (Japan), EGFR T790M/L858R supplied by Life technology (Madison, Wis.).
HTRF kit: supplied by Cis-Bio International, with Eu-marked TK1 antibody, XL665- and biotin-labelled TK1 polypeptide substrates.
The compound to be tested is diluted at a gradient by 3 times thereby giving 11 gradients starting from […] to 0.017 nM for the final concentration.
10 μl EGFR T790M/L858R enzyme reaction mixture system: 0.08 nM EGFR T790M/L858R, 1 μM biotin-TK1 peptide, 20 μM ATP. Reaction buffer: 50 mM Hepes (pH7.5), 10 mM MgCl2, 0.01 mM NaV3VO4. The reaction plate was white Proxiplate 384-Plus plate (PerkinElmer). Reaction was reacted at room temperature for 60 minutes.
Detecting reaction: 10 μl testing reagent was added to the reaction plate, the final concentration of Antibody was 2 nM, XL665 was 62.5 nM. Incubation was carried out for 60 minutes at room temperature. Detection was by Envision.

[2] = system: LU-01-0015 xenotransplantation (PDX) from lung cancer patients; test: In vivo efficacy, LU-01-0015 xenotransplantation (PDX) from lung cancer patients; set-up: species or system BALB/c nude mice; conditions: 25 mg/kg orally everyday
From the text: BALB/c nude mice, female, 6 to 8 weeks, about 18 to 22 g bodyweight, was kept in a special environment without pathogens, and a single ventilated cage (5 mice per cage). Beddings and water in all the cages were disinfected before use. […] 80 mice were supplied by Shanghai BK Laboratory Animal Co., LTD for study. Each mouse was subcutaneously implanted tumor tissue (20-30 mm^3) at right flank for growth of tumor. When the average tumor volume reached about 250-300 mm^3, the assay started. Test compounds were delivered orally everyday, 25 mg/kg. Tumor size was measured with two-dimensional caliper every 3 days, size was recorded by mm^3, and calculated by the following formula: V=V=0.5a×b2, where a and b are respectively the long diameter and short diameter length of the tumor. The antitumor efficacy was determined by dividing the average increased tumor volume in compound-treated animal by the average increased tumor volume in untreated animal.

[3] = system: LU-01-0319 Crizotinib resistance model; test: In vivo anti-tumor efficacy, Crizotinib resistant LU-01-0319 xenotransplantation (PDX) tumor; set-up: species or system BALB/c nude mice
From the text: LU-01-0319 xenotransplantation tumor models initially obtained from clinical sample through surgical resection were implanted into nude mice, which was defined as a batch of P0 (LU-01-0319-P0). The next batch was defined as P1 (LU-01-0319-P1) which was implanted tumors from P0. FP3 was regained from P2, the next batch was defined as FP4 which was implanted tumors from FP3. […] The continuous increasing tumors were defined as LU-01-0319 antitumor models. BALB/c nude mice, female, 6 to 8 weeks, about 18 to 22 g bodyweight, 75 mice were used for study, supplied by Shanghai BK Laboratory Animal Co., LTD. Tumour biopsies (about 30 mm^3) of LU-01-0319R FP6 were implanted subcutaneously on right side of each mouse for growth of tumor. […] Dose of Crizotinib was appropriately varied depending on the tumor size. When average tumor volume reached about ˜500 mm^3, the assay began. Once a day the compounds to be tested were orally administered. Tumor size were measured twice a week with a caliper at two dimensions, and calculated with the following formula: V=0.5a×b2, where a and b are respectively long diameter and short diameter of the tumor. The antitumor efficacy was determined by dividing the average increased tumor volume in compound-treated animal by the average increased tumor volume in untreated animal.

T1 sequence (P00533 25-1210 T790M/L858R): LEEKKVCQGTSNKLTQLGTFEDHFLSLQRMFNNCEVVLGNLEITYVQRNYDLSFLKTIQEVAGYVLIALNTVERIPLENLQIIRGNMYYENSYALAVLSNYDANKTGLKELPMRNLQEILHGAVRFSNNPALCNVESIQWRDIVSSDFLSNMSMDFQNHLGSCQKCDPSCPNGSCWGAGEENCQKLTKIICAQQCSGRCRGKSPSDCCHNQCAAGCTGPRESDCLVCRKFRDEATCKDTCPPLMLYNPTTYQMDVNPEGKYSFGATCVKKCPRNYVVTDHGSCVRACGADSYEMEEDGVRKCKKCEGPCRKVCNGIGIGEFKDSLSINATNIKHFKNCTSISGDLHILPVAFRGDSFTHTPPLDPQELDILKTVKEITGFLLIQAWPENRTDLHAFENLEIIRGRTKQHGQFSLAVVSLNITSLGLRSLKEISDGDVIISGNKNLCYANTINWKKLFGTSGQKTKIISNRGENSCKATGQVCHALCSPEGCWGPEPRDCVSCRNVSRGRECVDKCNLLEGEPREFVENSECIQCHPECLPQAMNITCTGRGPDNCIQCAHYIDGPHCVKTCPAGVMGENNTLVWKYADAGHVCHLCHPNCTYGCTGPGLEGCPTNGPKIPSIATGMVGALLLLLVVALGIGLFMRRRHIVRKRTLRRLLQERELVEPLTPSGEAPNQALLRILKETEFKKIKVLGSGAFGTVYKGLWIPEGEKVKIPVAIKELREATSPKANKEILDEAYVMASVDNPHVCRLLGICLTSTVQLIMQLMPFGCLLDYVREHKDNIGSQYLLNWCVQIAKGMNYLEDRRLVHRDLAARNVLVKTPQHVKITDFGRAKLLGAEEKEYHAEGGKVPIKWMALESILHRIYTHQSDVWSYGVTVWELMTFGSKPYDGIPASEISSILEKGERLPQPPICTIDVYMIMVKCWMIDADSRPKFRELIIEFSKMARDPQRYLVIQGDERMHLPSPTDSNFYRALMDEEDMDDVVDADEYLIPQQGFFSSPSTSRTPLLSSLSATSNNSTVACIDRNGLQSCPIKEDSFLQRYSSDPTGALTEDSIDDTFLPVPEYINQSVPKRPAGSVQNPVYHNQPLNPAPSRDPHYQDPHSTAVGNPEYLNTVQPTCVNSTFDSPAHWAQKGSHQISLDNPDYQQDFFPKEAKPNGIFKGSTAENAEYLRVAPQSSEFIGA

SMILES | IC50 [1] [nM] | Tumor volume ([2]; 3 days) [mm^3] | Tumor volume ([2]; 6 days) [mm^3] | Tumor volume ([2]; 9 days) [mm^3] | Tumor volume ([2]; 12 days) [mm^3] | Tumor volume ([2]; 16 days) [mm^3] | Tumor volume ([2]; 19 days) [mm^3] | Tumor volume ([2]; 23 days) [mm^3] | other results
COc1cc(N2CCC3(CCNC3)CC2)ccc1Nc1ncc(Cl)c(Nc2ccccc2P(C)(C)=O)n1 [Compound 3, (2-((5-Chloro-2-((2-methoxy-4-(2,8-diazaspiro[4.5]decan-8-yl)phenyl)amino)pyrimidin-4-yl)amino)phenyl)dimethylphosphine oxide] | 1 to 100 |  |  |  |  |  |  |  | 
COc1cc(N2CCC3(CC2)CNC3)ccc1Nc1ncc(Cl)c(Nc2ccccc2P(C)(C)=O)n1 [Compound 4, (2-((5-Chloro-2-((2-methoxy-4-(2,7-diazaspiro[3.5]nonan-7-yl)phenyl)amino)pyrimidin-4-yl)amino)phenyl)dimethyl phosphine oxide] | 1 to 100 |  |  |  |  |  |  |  | 
COc1cc(N2CCC3(CNC3)C2)ccc1Nc1ncc(Cl)c(Nc2ccccc2P(C)(C)=O)n1 [Compound 6, (2-((5-Chloro-2-((2-methoxy-4-(2,6-diazaspiro[3.4]octan-6-yl)phenyl)amino)pyrimidin-4-yl)amino)phenyl)dimethyl phosphine oxide] | 1 to 100 |  |  |  |  |  |  |  | 
COc1cc(N2CCC3(CCNCC3)CC2)ccc1Nc1ncc(Cl)c(Nc2ccccc2P(C)(C)=O)n1 [Compound 8, (2-((5-Chloro-2-((2-methoxy-4-(3,9-diazaspiro[5.5]undecan-3-yl)phenyl)amino)pyrimidin-4-yl)amino)phenyl)dimethyl phosphine oxide] | 1 to 100 |  |  |  |  |  |  |  | 
CN1CCC2(CC1)CCN(c1ccc(Nc3ncc(Cl)c(Nc4ccccc4P(C)(C)=O)n3)c(OC(F)F)c1)CC2 [Compound 11, (2-((5-Chloro-2-((2-(difluoromethoxy)-4-(9-methyl-3,9-diazaspiro[5.5]undecan-3-yl)phenyl)amino)pyrimidin-4-yl)amino)phenyl)dimethyl phosphine oxide] | 1 to 100 |  |  |  |  |  |  |  | 
COc1cc(N2CCC3(CCN(C)CC3)CC2)ccc1Nc1ncc(Cl)c(Nc2ccccc2P(C)(C)=S)n1 [Compound 12, 5-Chloro-N^4-(2-(dimethylphosphorothioyl)phenyl)-N^2-(2-methoxy-4-(9-methyl-3,9-diazaspiro[5.5]undecan-3-yl)phenyl)pyrimidine-2,4-diamine] | 1 to 100 | 199 | 97 | 90 | 58 | 49 | 42 | 32 | 
COc1cc(N2CCC3(CCN(C)CC3)CC2)c(F)cc1Nc1ncc(Cl)c(Nc2ccccc2P(C)(C)=O)n1 [Compound 20, (2-((5-Chloro-2-((5-fluoro-2-methoxy-4-(9-methyl-3,9-diazaspiro[5.5]undecan-3-yl)phenyl)amino)pyrimidin-4-yl)amino)phenyl)dimethyl phosphine oxide] | 1 to 100 |  |  |  |  |  |  |  | 
COc1cc(N2CCC3(CCN(C)CC3)CC2)c(Cl)cc1Nc1ncc(Cl)c(Nc2ccccc2P(C)(C)=O)n1 [Compound 22, (2-((5-Chloro-2-((5-chloro-2-methoxy-4-(9-methyl-3,9-diazaspiro[5.5]undecan-3-yl)phenyl)amino)pyrimidin-4-yl)amino)phenyl)dimethyl phosphine oxide] | 1 to 100 | 234 | 137 | 90 | 68 | 46 | 54 | 41 | 
COc1cc(N2CCC3(CCN(C)CC3)CC2)c(C)cc1Nc1ncc(Cl)c(Nc2ccccc2P(C)(C)=O)n1 [Compound 23, (2-((5-Chloro-2-((2-methoxy-5-methyl-4-(9-methyl-3,9-diazaspiro[5.5]undecan-3-yl)phenyl)amino)pyrimidin-4-yl)amino)phenyl)dimethyl phosphine oxide] | 1 to 100 |  |  |  |  |  |  |  | 
COc1cc(N2CCC3(CCN(C)CC3)CC2)ccc1Nc1ncc(Cl)c(Nc2c(F)cccc2P(C)(C)=O)n1 [Compound 25, (2-((5-Chloro-2-((2-methoxy-4-(9-methyl-3,9-diazaspiro[5.5]undecan-3-yl)phenyl)amino)pyrimidin-4-yl)amino)-3-fluorophenyl)dimethyl phosphine oxide] | 101 to 1000 |  |  |  |  |  |  |  | 
COc1cc(N2CCC3(CCN(C)CC3)CC2)ccc1Nc1ncc(Cl)c(Nc2ccc(F)cc2P(C)(C)=O)n1 [Compound 26, (2-((5-Chloro-2-((2-methoxy-4-(9-methyl-3,9-diazaspiro[5.5]undecan-3-yl)phenyl)amino)pyrimidin-4-yl)amino)-5-fluorophenyl)dimethyl phosphine oxide] | 1 to 100 | 235 | 127 | 84 | 55 | 46 | 59 | 53 | 
COc1cc(C2CCC3(CC2)CCN(C)CC3)ccc1Nc1ncc(Cl)c(Nc2ccccc2P(C)(C)=O)n1 [Compound 27, (2-((5-Chloro-2-((2-methoxy-4-(3-methyl-3-azaspiro[5.5]undecan-9-yl)phenyl)amino)pyrimidin-4-yl)amino)phenyl)dimethyl phosphine oxide] | 1 to 100 | 158 | 82 | 68 | 49 | 34 | 41 | 35 | Tumor volume ([3]; 0 day, dosage 3 mg/Kg orally once a day): 503 mm^3; Tumor volume ([3]; 0 day, dosage 10 mg/Kg orally once a day): 502 mm^3; Tumor volume ([3]; 3 days, dosage 3 mg/Kg orally once a day): 689 mm^3; Tumor volume ([3]; 3 days, dosage 10 mg/Kg orally once a day): 650 mm^3; Tumor volume ([3]; 7 days, dosage 3 mg/Kg orally once a day): 777 mm^3; Tumor volume ([3]; 7 days, dosage 10 mg/Kg orally once a day): 752 mm^3; Tumor volume ([3]; 10 days, dosage 3 mg/Kg orally once a day): 1003 mm^3; Tumor volume ([3]; 10 days, dosage 10 mg/Kg orally once a day): 743 mm^3; Tumor volume ([3]; 13 days, dosage 3 mg/Kg orally once a day): 1177 mm^3; Tumor volume ([3]; 13 days, dosage 10 mg/Kg orally once a day): 705 mm^3; Tumor volume ([3]; 17 days, dosage 3 mg/Kg orally once a day): 1490 mm^3; Tumor volume ([3]; 17 days, dosage 10 mg/Kg orally once a day): 756 mm^3; Tumor volume ([3]; 19 days, dosage 3 mg/Kg orally once a day): 1602 mm^3; Tumor volume ([3]; 19 days, dosage 10 mg/Kg orally once a day): 692 mm^3
C[C@@H](Oc1cc(-c2cnn(C3CCNCC3)c2)cnc1N)c1c(Cl)ccc(F)c1Cl [Crizotinib, reference compound] |  | 297 | 288 | 311 | 340 | 413 | 419 | 439 | Tumor volume ([3]; 0 day, 25 mg/Kg orally once a day): 502 mm^3; Tumor volume ([3]; 3 days, 25 mg/Kg orally once a day): 708 mm^3; Tumor volume ([3]; 7 days, 25 mg/Kg orally once a day): 828 mm^3; Tumor volume ([3]; 10 days, 25 mg/Kg orally once a day): 1002 mm^3; Tumor volume ([3]; 13 days, 25 mg/Kg orally once a day): 1116 mm^3; Tumor volume ([3]; 17 days, 25 mg/Kg orally once a day): 1415 mm^3; Tumor volume ([3]; 19 days, 25 mg/Kg orally once a day): 1488 mm^3
